Article PMC5620609 (Pharmaceuticals, 2017)
Like-named read-outs stand apart in the source and are kept apart here.

Experiments:
RNR = molecular target: T1, RNR (Homo sapiens, UniProt P23921); assay: RNR inhibition whole cell assay (HPLC of nucleotides from HeLa cell extracts); format: cell-based; settings: 50 µM, 16 h
T1 construct: endogenous in cells; host or cells: HeLa
T1 sequence (P23921 1-792): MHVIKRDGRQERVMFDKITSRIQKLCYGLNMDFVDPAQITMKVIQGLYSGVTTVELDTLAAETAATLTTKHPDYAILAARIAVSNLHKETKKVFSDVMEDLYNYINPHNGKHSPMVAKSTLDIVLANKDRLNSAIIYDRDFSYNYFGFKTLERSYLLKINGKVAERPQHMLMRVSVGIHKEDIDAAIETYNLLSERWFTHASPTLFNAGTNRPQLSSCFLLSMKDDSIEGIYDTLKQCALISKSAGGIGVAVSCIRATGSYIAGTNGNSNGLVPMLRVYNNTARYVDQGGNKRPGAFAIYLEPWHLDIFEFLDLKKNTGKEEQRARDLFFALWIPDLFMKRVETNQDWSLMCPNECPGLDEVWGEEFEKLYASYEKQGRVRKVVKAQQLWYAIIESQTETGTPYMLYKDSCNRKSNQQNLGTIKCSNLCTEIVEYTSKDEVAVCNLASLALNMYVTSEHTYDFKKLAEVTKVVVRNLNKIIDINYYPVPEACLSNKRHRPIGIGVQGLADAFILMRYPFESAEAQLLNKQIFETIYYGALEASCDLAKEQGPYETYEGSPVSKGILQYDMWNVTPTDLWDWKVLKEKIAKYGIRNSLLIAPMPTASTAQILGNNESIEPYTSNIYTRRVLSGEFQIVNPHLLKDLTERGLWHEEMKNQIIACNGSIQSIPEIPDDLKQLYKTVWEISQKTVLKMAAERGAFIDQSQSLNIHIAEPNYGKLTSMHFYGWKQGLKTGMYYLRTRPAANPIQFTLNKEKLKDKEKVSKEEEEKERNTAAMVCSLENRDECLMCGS
T1 sequence (P31350 1-389 partner): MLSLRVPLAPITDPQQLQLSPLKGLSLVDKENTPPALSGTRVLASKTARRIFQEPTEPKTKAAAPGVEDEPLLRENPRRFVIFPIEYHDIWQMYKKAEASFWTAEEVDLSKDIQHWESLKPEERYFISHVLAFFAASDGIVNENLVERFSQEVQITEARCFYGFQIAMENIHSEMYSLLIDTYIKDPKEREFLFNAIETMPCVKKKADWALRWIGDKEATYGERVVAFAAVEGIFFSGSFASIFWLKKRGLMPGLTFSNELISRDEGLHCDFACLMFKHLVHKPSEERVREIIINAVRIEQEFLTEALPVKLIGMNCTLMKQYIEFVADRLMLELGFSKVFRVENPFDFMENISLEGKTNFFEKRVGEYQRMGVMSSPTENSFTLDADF
From the text: Gemcitabine was used as a positive control.
The method used to extract and quantitate nucleotides followed previously reported procedures.

[1] = Pharmacokinetic study, IV in mice; format: in vivo; settings: 10 mg/kg; for half-life: iv
Description: Blood aliquots (300–400 µL) were collected via cardiac puncture from anesthetized mice in anticoagulant coated tubes, then kept on ice and centrifuged at 2500× g for 15 min at 4 °C. The plasma was harvested and kept frozen at −80 °C. Plasma samples were processed using acetonitrile precipitation and analyzed by HPLC-MS/MS. A plasma calibration curve was generated and a reportable linear range determined, along with the lower limit of quantitation.

HL-60 = assay: NCI 60 cell line panel: HL-60; format: cell-based, human; settings: Leukemia, TP53 null/mutant
From the text: (§1) Details of the NCI 60 One Dose Screen are well known and available online.

SR = assay: NCI 60 cell line panel: SR; format: cell-based, human; settings: Leukemia, TP53 wild type
From the text: as §1

A549/ATCC = assay: NCI 60 cell line panel: A549/ATCC; format: cell-based, human; settings: NSCL, TP53 wild type
From the text: as §1

NCI-H23 = assay: NCI 60 cell line panel: NCI-H23; format: cell-based, human; settings: NSCL, TP53 null/mutant
From the text: as §1

KM12 = assay: NCI 60 cell line panel: KM12; format: cell-based, human; settings: Colon cancer, TP53 null/mutant
From the text: as §1

SW-620 = assay: NCI 60 cell line panel: SW-620; format: cell-based, human; settings: Colon cancer, TP53 null/mutant
From the text: as §1

SF-295 = assay: NCI 60 cell line panel: SF-295; format: cell-based, human; settings: CNS cancer, TP53 null/mutant
From the text: as §1

SF-539 = assay: NCI 60 cell line panel: SF-539; format: cell-based, human; settings: CNS cancer, TP53 null/mutant
From the text: as §1

M14 = assay: NCI 60 cell line panel: M14; format: cell-based, human; settings: Melanoma, TP53 null/mutant
From the text: as §1

MDA-MB-435 = assay: NCI 60 cell line panel: MDA-MB-435; format: cell-based, human; settings: Melanoma, TP53 null/mutant
From the text: as §1

SK-MEL-2 = assay: NCI 60 cell line panel: SK-MEL-2; format: cell-based, human; settings: Melanoma, TP53 null/mutant
From the text: as §1

SK-MEL-5 = assay: NCI 60 cell line panel: SK-MEL-5; format: cell-based, human; settings: Melanoma, TP53 wild type
From the text: as §1

OVCAR-5 = assay: NCI 60 cell line panel: OVCAR-5; format: cell-based, human; settings: Ovarian cancer, TP53 wild type
From the text: as §1

OVCAR-8 = assay: NCI 60 cell line panel: OVCAR-8; format: cell-based, human; settings: Ovarian cancer, TP53 null/mutant
From the text: as §1

SK-OV-3 = assay: NCI 60 cell line panel: SK-OV-3; format: cell-based, human; settings: Ovarian cancer, TP53 null/mutant
From the text: as §1

A498 = assay: NCI 60 cell line panel: A498; format: cell-based, human; settings: Renal cancer, TP53 wild type
From the text: as §1

ACHN = assay: NCI 60 cell line panel: ACHN; format: cell-based, human; settings: Renal cancer, TP53 wild type
From the text: as §1

RXF 393 = assay: NCI 60 cell line panel: RXF 393; format: cell-based, human; settings: Renal cancer, TP53 null/mutant
From the text: as §1

TK-10 = assay: NCI 60 cell line panel: TK-10; format: cell-based, human; settings: Renal cancer, TP53 null/mutant
From the text: as §1

HS 578T = assay: NCI 60 cell line panel: HS 578T; format: cell-based, human; settings: Breast cancer, TP53 null/mutant
From the text: as §1

[2] = nude mice; same schedule
Description: (§2) Three mice were placed in a dose group on the first day of treatment (Day 1). […] Animals were observed daily for mortality and moribundity. Body weights were measured daily starting on day 1.

in vivo = settings: nude, mouse, iv
Description: as §2

Nc1ncn([C@@H]2O[C@H](CO)[C@@H](O)C2(F)F)c(=O)n1 [NUC013, 5-aza-2′,2′-difluroro deoxycytidine]
ADP concentration (RNR): 13,845 | ATP concentration (RNR): 21,335 | CTP concentration (RNR): 1279 | GTP concentration (RNR): 2006 | UTP concentration (RNR): 4070 | dATP, peak area (RNR): 10.2 AU | dGDP, peak area (RNR): 5.6 AU | dTDP, peak area (RNR): 18.65 AU | dUTP, peak area (RNR): 8.8 AU | identification in plasma at the 6 and 24 h timepoints ([1]; mice, IV): could not be identified | half-life ([1]; mouse, plasma, mice, intravenous injection, read-out: half-life): 20.1 min | half-life ([1]; mouse, plasma, mouse, IV, plasma, non-compartmental, read-out: t1/2 (converted)): 20.1 min | AUC Extr ([1]; mouse, IV, plasma): 0.04% | AUC(0-inf) ([1]; mouse, IV, plasma): 11100 ng·h/mL | AUC(0-t) ([1]; mouse, IV, plasma): 11100 ng·h/mL | C0 ([1]; mouse, IV, plasma): 36900 ng/mL | Last time point for AUClast ([1]; mouse, IV, plasma): 4 h | MRT ([1]; mouse, IV, plasma): 17.5 min | Vd ([1]; mouse, IV, plasma, read-out: Vss): 0.26 L/kg | Growth (%) at 10 µM (HL-60): 25.23% | Growth (%) at 10 µM (SR): 14.99% | Growth (%) at 10 µM (A549/ATCC): 37.91% | Growth (%) at 10 µM (NCI-H23): 30.61% | Growth (%) at 10 µM (KM12): 61.18% | Growth (%) at 10 µM (SW-620): 51.21% | Growth (%) at 10 µM (SF-295): 77.93% | Growth (%) at 10 µM (SF-539): 22.25% | Growth (%) at 10 µM (M14): 15.55% | Growth (%) at 10 µM (MDA-MB-435): 53.04% | Growth (%) at 10 µM (SK-MEL-2): 104.47% | Growth (%) at 10 µM (SK-MEL-5): 70.84% | Growth (%) at 10 µM (OVCAR-5): 86.95% | Growth (%) at 10 µM (OVCAR-8): 49.95% | Growth (%) at 10 µM (SK-OV-3): 71.09% | Growth (%) at 10 µM (A498): 38.04% | Growth (%) at 10 µM (ACHN): 7.28% | Growth (%) at 10 µM (RXF 393): 44.97% | Growth (%) at 10 µM (TK-10): 91.13% | Growth (%) at 10 µM (HS 578T): 90.37% | difference in MTD versus decitabine [2]: greater than 24 fold | MTD at 3 weeks (in vivo): > 120 mg/kg
